The results in this text go back to patent publication US8497245B2, “Trypsin-like serine protease inhibitors, their preparation and use as selective inhibitors of the clotting factors IIa and Xa” (The Medicines Company (Leipzig) GmbH, priority 2010, dated 2013).

Assay type in all cases: biochemical
Assay [1] has as its target T1, Human Activated Protein C (h aPC) (Homo sapiens, UniProt P04070).
T1 construct: purchased Enzyme Research Laboratories
The assay can be described thus: Inhibition of human activated protein C (reference enzyme). The conditions noted are these: Pefachrome PCa substrate. In a few lines: (§1)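 Chromogenic assays on purified enzymes, with p-nitroaniline release read at 405 nm. Ki was fitted from equilibrium rates to the competitive-inhibition rate equation. Values are nM, averaged over at least three determinations.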

In assay [2] the target is T2, Subcomponent "s" of Human Complement Component 1 (h C1s) (Homo sapiens, UniProt P09871).
T2 construct: purchased Calbiochem
T2 sequence (P09871 438-688 limits assumed): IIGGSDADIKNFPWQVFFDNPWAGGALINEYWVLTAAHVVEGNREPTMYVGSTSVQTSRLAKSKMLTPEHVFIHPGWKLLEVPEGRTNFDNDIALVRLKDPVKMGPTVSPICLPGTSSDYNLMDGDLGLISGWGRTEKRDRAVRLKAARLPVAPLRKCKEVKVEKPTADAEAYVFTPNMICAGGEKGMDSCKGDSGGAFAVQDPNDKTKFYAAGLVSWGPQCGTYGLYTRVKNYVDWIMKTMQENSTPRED
T2 sequence (P09871 16-437 partner limits assumed): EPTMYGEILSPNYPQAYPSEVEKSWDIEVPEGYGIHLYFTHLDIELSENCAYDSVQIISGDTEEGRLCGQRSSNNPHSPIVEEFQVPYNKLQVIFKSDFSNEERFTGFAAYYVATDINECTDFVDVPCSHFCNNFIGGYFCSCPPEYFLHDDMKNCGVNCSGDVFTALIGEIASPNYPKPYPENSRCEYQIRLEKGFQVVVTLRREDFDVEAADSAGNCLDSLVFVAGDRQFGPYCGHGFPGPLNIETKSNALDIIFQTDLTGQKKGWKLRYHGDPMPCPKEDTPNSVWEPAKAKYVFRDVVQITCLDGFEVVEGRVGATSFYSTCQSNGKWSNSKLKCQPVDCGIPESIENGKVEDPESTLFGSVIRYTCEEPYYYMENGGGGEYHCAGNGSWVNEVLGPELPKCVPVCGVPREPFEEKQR
The assay can be described thus: Inhibition of human C1s (reference enzyme). The following applies: S-2314 substrate; read-out: Ki h Cls. A digest of the protocol: as §1

The target of assay [3] is T3, Human tissue-type plasminogen activator (h t-PA) (Homo sapiens, UniProt P00750).
T3 construct: purchased Boehringer Ingelheim Actilyse
The assay can be described thus: Inhibition of human tissue-type plasminogen activator (reference enzyme). The conditions noted are these: Pefachrome tPA substrate; read-out: Ki h t-PA. The procedure:
The equilibrium rates were used to calculate the inhibitor/enzyme dissociation constant (Ki values) by parameter fitting in accordance with the rate equation for competitive inhibition using GraFit (version 4 from Erithacus).
Dissociation constants were calculated as described herein.

Assay [4] deals with T4, Human urinary kallikrein (h uKK) (Homo sapiens, UniProt P06870).
T4 construct: purchased Lee Biosolutions
Kind of assay: Inhibition of human urinary kallikrein (reference enzyme). The following applies: S-2266 substrate. A digest of the protocol:
as §1

Assay [5] addresses T5, Human plasmin (h plasmin) (Homo sapiens, UniProt P00747).
T5 construct: purchased Calbiochem
Kind of assay: Inhibition of human plasmin (reference enzyme). The following applies: Chromozym PL substrate. In a few lines: as §1

For the next assay, the target named is T6, human Factor Xa (Homo sapiens, UniProt P00742).
T6 construct: human Factor Xa from Enzyme Research Laboratories; purchased Enzyme Research Laboratories
Kind of assay: Inhibition constants for human factor Xa, chromogenic substrate assay. The following applies: 25° C., Pefachrome FXa substrate, average of at least three determinations; read-out: Ki h FXa. A digest of the protocol:
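Absorbance at 405 nm tracked p-nitroaniline liberated by each purified enzyme (human thrombin or human factor Xa) in pH 8.0 TBS containing 0.154 M NaCl and 2% ethanol. Equilibrium rates were fitted by competitive-inhibition kinetics to give Ki; values are means of ≥3 runs.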

For assay [6], the target named is T7, Human urokinase type plasminogen activator (h u-PA) (Homo sapiens, UniProt P00749).
T7 construct: purchased MEDAC GmbH Urokinase HS medac
Kind of assay: Inhibition of human urokinase type plasminogen activator (reference enzyme). The conditions noted are these: H-Glu-Gly-Arg-pNA substrate. In a few lines:
as §1

For assay [7], the target named is T8, human factor IIa (human alpha-thrombin) (Homo sapiens, UniProt P00734).
T8 construct: human alpha-thrombin from Enzyme Research Laboratories; purchased Enzyme Research Laboratories
Kind of assay: Inhibition constants for human factor IIa, chromogenic substrate assay. The conditions noted are these: 25° C., Pefachrome tPA substrate, average of at least three determinations; read-out: Ki h FIIa. A digest of the protocol:
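Purified enzymes assayed in TBS (0.05 M Tris, 0.154 M NaCl, 2% ethanol, pH 8.0); p-nitroaniline release followed at 405 nm. Ki from equilibrium rates fitted to the competitive-inhibition rate equation, averaged over at least three determinations.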

For assay [8], the target named is T9, Subcomponent "r" of Human Complement Component 1 (h C1r) (Homo sapiens, UniProt P00736).
T9 construct: purchased Calbiochem
T9 sequence (P00736 464-705 limits assumed): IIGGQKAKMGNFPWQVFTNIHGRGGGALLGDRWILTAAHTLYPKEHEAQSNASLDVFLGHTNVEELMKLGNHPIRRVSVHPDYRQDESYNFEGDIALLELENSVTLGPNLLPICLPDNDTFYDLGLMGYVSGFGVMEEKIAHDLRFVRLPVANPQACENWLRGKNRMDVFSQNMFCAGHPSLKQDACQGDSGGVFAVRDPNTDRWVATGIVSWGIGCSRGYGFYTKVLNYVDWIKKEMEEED
T9 sequence (P00736 18-463 partner limits assumed): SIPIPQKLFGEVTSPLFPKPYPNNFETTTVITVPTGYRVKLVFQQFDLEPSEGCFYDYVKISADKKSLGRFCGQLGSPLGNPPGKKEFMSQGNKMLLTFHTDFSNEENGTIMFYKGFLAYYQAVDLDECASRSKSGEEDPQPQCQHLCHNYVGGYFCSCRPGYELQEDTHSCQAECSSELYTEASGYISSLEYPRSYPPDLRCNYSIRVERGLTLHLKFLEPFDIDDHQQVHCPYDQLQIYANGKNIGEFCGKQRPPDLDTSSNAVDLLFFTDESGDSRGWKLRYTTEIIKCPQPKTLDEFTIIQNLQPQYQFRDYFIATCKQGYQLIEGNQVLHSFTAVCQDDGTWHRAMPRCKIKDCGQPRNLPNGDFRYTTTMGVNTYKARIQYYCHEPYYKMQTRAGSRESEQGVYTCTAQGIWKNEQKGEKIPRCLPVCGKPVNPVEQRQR
The assay can be described thus: Inhibition of human C1r (reference enzyme). The following applies: S-2314 substrate; read-out: Ki h Clr. A digest of the protocol: as §1

Assay [9] has as its target T10, Human plasma kallikrein (h PK) (Homo sapiens, UniProt P03952).
T10 construct: purchased Enzyme Research Laboratories
The assay can be described thus: Inhibition of human plasma kallikrein (reference enzyme). The conditions noted are these: S2302 substrate. A digest of the protocol: as §1

A value given as a limit tells only on which side of the number the result lay.

T10 sequence (P03952 391-638 limits assumed): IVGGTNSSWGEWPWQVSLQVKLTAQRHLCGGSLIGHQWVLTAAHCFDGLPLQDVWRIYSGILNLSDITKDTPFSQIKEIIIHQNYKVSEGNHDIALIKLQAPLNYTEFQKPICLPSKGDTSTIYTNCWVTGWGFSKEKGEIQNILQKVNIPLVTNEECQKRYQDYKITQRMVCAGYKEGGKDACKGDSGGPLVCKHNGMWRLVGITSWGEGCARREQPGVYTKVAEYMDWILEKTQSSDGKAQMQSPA
T10 sequence (P03952 20-390 partner limits assumed): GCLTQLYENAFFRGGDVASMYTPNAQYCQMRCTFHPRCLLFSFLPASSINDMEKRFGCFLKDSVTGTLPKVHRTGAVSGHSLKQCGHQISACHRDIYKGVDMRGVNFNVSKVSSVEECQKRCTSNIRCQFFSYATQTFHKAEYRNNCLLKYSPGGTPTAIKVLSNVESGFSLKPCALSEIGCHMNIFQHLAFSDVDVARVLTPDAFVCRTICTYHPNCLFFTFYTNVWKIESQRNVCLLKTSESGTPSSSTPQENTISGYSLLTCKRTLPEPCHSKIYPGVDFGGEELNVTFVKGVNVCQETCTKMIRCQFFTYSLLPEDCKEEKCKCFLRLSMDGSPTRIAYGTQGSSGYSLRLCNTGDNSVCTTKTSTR
T5 sequence (P00747 581-810 limits assumed): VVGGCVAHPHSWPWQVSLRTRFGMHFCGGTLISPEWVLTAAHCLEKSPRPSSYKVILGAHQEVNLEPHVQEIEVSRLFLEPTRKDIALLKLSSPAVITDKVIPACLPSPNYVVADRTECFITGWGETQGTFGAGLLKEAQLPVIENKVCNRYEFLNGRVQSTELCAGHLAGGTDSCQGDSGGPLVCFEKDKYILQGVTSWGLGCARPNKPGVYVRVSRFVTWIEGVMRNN
T5 sequence (P00747 97-580 partner limits assumed): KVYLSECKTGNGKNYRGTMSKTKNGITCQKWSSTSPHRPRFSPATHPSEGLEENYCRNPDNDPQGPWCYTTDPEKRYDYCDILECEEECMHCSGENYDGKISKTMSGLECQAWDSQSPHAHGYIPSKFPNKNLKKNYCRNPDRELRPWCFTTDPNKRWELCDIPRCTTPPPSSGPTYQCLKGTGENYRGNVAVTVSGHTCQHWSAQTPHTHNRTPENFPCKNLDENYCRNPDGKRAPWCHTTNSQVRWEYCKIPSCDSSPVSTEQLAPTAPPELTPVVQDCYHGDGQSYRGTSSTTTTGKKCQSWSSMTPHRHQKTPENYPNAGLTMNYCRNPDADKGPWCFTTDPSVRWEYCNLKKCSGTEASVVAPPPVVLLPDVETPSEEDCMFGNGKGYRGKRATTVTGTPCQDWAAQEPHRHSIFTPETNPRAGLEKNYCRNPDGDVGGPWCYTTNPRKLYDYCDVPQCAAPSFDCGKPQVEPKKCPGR
T4 sequence (P06870 25-262): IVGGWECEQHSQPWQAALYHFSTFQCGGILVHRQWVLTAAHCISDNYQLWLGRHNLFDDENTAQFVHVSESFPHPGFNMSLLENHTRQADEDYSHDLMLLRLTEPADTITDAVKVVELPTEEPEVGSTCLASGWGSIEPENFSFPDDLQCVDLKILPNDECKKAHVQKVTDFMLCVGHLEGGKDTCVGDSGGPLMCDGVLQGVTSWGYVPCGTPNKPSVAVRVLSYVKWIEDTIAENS
T3 sequence (P00750 36-562): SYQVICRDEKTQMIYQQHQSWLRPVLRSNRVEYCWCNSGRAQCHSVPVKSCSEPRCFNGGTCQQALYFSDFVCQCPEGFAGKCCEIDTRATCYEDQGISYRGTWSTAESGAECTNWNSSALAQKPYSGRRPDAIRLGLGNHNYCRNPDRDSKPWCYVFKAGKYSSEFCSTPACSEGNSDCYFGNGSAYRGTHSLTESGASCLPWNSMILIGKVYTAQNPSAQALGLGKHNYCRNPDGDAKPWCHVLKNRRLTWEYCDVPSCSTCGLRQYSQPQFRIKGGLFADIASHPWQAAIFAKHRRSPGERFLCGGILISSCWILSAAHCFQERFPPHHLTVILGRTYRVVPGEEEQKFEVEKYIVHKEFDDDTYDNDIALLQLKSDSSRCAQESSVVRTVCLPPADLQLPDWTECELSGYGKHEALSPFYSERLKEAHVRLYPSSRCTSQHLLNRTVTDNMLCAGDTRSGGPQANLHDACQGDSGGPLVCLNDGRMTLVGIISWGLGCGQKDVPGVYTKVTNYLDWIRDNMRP
T6 sequence (P00742 235-488 limits assumed): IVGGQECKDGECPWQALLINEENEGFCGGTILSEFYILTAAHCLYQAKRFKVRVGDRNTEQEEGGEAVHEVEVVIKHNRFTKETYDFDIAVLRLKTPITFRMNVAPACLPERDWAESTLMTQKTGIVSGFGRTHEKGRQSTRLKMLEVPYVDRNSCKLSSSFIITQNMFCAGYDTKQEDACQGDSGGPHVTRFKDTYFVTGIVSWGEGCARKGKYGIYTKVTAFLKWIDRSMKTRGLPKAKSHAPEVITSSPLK
T6 sequence (P00742 41-179 partner limits assumed): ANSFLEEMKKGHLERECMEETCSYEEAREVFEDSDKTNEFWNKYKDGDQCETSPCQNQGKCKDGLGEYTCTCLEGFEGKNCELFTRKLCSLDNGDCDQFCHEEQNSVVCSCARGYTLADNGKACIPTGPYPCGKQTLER
T1 sequence (P04070 212-450 limits assumed): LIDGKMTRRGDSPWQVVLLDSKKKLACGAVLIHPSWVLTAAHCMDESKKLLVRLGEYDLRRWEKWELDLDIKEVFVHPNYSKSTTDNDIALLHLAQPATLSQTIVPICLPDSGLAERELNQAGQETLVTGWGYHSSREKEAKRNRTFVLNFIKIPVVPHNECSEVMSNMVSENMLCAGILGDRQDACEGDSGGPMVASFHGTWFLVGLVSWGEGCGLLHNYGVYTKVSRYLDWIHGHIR
T1 sequence (P04070 43-197 partner limits assumed): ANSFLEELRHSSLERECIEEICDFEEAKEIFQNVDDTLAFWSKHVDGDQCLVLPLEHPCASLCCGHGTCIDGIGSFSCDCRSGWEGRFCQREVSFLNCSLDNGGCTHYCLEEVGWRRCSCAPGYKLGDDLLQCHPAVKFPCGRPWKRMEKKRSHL

As usually defined, the Ki is a measure of affinity in units of concentration, obtained from inhibition or displacement. For `N[C@H]1C[C@@H](C(=O)NCc2cc(Cl)ccc2-n2cnnn2)N(C(=O)[C@@H](CCC(=O)N2CCOCC2)NS(=O)(=O)Cc2ccccc2)C1` [Compound 2.23], the Ki in assay [1] was 6.7 µM; in assay [2], over 70 µM; in assay [3], 4.8 µM; in assay [4], over 50 µM; in [5] it was 1.99 µM; at human Factor Xa it was 0.00032 µM. Also, the Ki in assay [6] was over 100 µM; in assay [7] it was 0.0067 µM; in [8] it was over 40 µM; in [9] it was 0.39 µM.
Turning to `NCc1ccc(Cl)cc1CNC(=O)[C@@H]1C[C@H](N)CN1C(=O)[C@@H](CCC(=O)N1CCOCC1)NS(=O)(=O)Cc1ccccc1` [Compound 2.24], the inhibitory constant (Ki) in assay [1] was over 200 µM; in assay [2], over 60 µM; in assay [3] it was over 15 µM; in [4] it was over 50 µM; in assay [5] it was over 15 µM; on human Factor Xa, 0.00019 µM. The inhibition constant Ki in [6] was over 100 µM; in assay [7] it was 0.00128 µM; in assay [8], over 50 µM; in assay [9], 1.21 µM.
For the molecule `NCc1ccc(Cl)cc1CNC(=O)[C@@H]1C[C@@H](N)CN1C(=O)[C@@H](CCC(=O)N1CCOCC1)NS(=O)(=O)Cc1ccccc1` [Compound 2.25], the Ki in assay [1] was over 100 µM; in assay [2] it was over 100 µM; in [3] it was over 50 µM; in assay [4], over 50 µM; in assay [5], over 10 µM; on human Factor Xa it was 0.0011 µM. Also, the Ki in assay [6] was over 30 µM; in assay [7] it was 0.0047 µM; in [8], over 20 µM; in assay [9] it was 2.58 µM.
Regarding `CN(C(=O)CC[C@@H](NS(=O)(=O)Cc1ccccc1)C(=O)N1CCC[C@H]1C(=O)NCc1cc(Cl)ccc1CN)C1CCOCC1` [Compound 2.26], the Ki was over 50 µM in [1]; over 10 µM in assay [2]; over 100 µM in assay [3]; over 50 µM in assay [4]; over 30 µM in assay [5]; 0.0069 µM on human Factor Xa. In addition, the Ki in assay [6] was over 100 µM; in [7], 0.001 µM; in assay [8], over 100 µM; in assay [9], 2.55 µM.
As for `CN(C(=O)CC[C@@H](NS(=O)(=O)Cc1ccccc1)C(=O)N1CCC[C@H]1C(=O)NCc1cc(Cl)ccc1CN)C1CCNCC1` [Compound 2.27], the Ki in [1] was over 50 µM; in assay [2], over 100 µM; in [3] it was over 100 µM; in assay [4], over 100 µM; in [5], over 10 µM; on human Factor Xa it was 0.018 µM. The Ki in assay [6] was over 100 µM; in assay [7] it was 0.0008 µM; in assay [8], over 100 µM; in assay [9], 1.65 µM.
With `NCc1ccc(Cl)cc1CNC(=O)CC[C@@H](NS(=O)(=O)Cc1ccccc1)C(=O)N1CCC[C@H]1C(=O)NCc1cc(Cl)ccc1CN` [Compound 2.30], the Ki was over 25 µM in [1]; over 80 µM in [2]; over 20 µM in assay [3]; over 20 µM in assay [4]; over 5 µM in [5]; 0.0086 µM on human Factor Xa. Besides, the Ki was over 40 µM in [6], 0.00099 µM in assay [7], over 30 µM in assay [8] and 0.432 µM in assay [9].
Turning to `NCc1ccc(Cl)cc1CNC(=O)[C@@H]1CCCN1C(=O)[C@@H](CCC(=O)N1CCNCC1)NS(=O)(=O)Cc1ccccc1` [Compound 2.31], the Ki in assay [1] was over 100 µM; in [2], over 100 µM; in assay [3], over 20 µM; in assay [4] it was over 100 µM; in [5] it was over 10 µM; at human Factor Xa, 0.021 µM. Further, the Ki was over 100 µM in assay [6], 0.00048 µM in [7], over 100 µM in assay [8] and 4 µM in assay [9].
As for `NCc1ccc(Cl)cc1CNC(=O)[C@@H]1CCCN1C(=O)[C@@H](CCC(=O)N1CCC(N)CC1)NS(=O)(=O)Cc1ccccc1` [Compound 2.32], the Ki is over 100 µM in [1]; over 100 µM in [2]; over 50 µM in assay [3]; over 10 µM in assay [4]; over 20 µM in assay [5]; 0.033 µM at human Factor Xa. Besides, the Ki in [6] was over 100 µM; in assay [7], 0.00015 µM; in assay [8], over 100 µM; in assay [9], 3.06 µM.
Regarding `NCc1ccc(Cl)cc1CNC(=O)[C@@H]1CCCN1C(=O)[C@@H](CCC(=O)N1CCOCC1)NC(=O)OCc1ccccc1` [Compound 2.33], the inhibitory constant (Ki) in assay [1] was over 30 µM; in assay [2] it was over 50 µM; in assay [3], over 20 µM; in assay [4], over 40 µM; in assay [5], over 20 µM; on human Factor Xa it was 0.0088 µM. Further, the Ki in assay [6] was over 50 µM; in assay [7] it was 0.0014 µM; in [8], over 100 µM; in assay [9], 6.06 µM.
As to `NCc1ccc(Cl)cc1CNC(=O)[C@@H]1CCCN1C(=O)[C@@H](CC(=O)Nc1ccncc1)NS(=O)(=O)Cc1ccccc1` [Compound 2.34], the Ki was over 100 µM in [1]; over 100 µM in [2]; over 100 µM in assay [3]; over 100 µM in [4]; over 20 µM in assay [5]; 0.021 µM at human Factor Xa. Moreover, the Ki in assay [6] was over 100 µM; in assay [7] it was 0.0017 µM; in assay [8], over 100 µM; in [9], 1.76 µM.
For the molecule `NCc1ccc(Cl)cc1CNC(=O)[C@@H]1C[C@H](N)CN1C(=O)[C@@H](CC(=O)N1CCNCC1)NS(=O)(=O)Cc1ccccc1` [Compound 2.35], the Ki in [1] was over 100 µM; in assay [2], over 15 µM; in [3] it was 1 µM; in assay [4], over 50 µM; in [5], over 3 µM; on human Factor Xa, 0.00079 µM. Moreover, the inhibitory constant (Ki) was over 20 µM in assay [6], 0.0044 µM in assay [7], over 100 µM in [8] and 0.351 µM in assay [9].
`NCc1ccc(Cl)cc1CNC(=O)[C@@H]1CCCN1C(=O)[C@@H](CC(=O)N1CCCCC1)NS(=O)(=O)Cc1ccccc1` [Compound 2.41]: the Ki is over 100 µM in assay [1]; over 80 µM in assay [2]; over 15 µM in [3]; over 40 µM in assay [4]; 8 µM in assay [5]; 0.00012 µM at human Factor Xa. Further, the Ki in [6] is over 50 µM; in assay [7], 0.00011 µM; in assay [8], over 50 µM; in assay [9], 0.605 µM.
